Data: US12060387B2, “Polypeptide-based shuttle agents for improving the transduction efficiency of polypeptide cargos to the cytosol of target eukaryotic cells, uses thereof, methods and kits relating to same” (priority 2015, dated 2024)
Like-named read-outs stand apart in the source and are kept apart here. Where no end group is shown, it is not given here.

Legend:
[1] = Cell toxicity / % cell viability by flow cytometry (cells in total events v. untreated); format: cell-based, human; settings: human, THP-1 cells, Cell viability (%) (±St. Dev.; n = 3), FIG. 17B; THP-1; GFP-NLS 5 μM; shuttle 1 μM; 5 minutes
[2] = as above; format: cell-based, Human; settings: human, HeLa cells, HeLa, 1 hour; for viability at 1 h, 0.5 µM / viability at 1 h, 1 µM / viability at 1 h, 3 µM / viability at 1 h, 5 µM: Cell viability (%) (±St. Dev.; n = 3), read-out: Cell viability (%) (±St. Dev.; n = 3); for viability at 1 h, 0.5 µM: shuttle 0.5 μM; for viability at 1 h, 1 µM: shuttle 1 μM; for viability at 1 h, 3 µM: shuttle 3 μM; for viability at 1 h, 5 µM: shuttle 5 μM
HeLa cells [3] = test: as above; format: cell-based, Human; settings: HeLa; GFP-NLS 5 μM; shuttle 1 μM; 1 hour
primary myoblasts = test: Calcein endosomal escape assay, quantification by flow cytometry; format: cell-based, Human
Method: (§1) In addition to microscopy, flow cytometry allows a more quantitative analysis of the endosomal leakage as the fluorescence intensity signal increases once the calcein is released in the cytoplasm. Calcein fluorescence is optimal at physiological pH (e.g., in the cytosol), as compared to the acidic environment of the endosome.
(§2) The cells were allowed to attach by incubating overnight in appropriate growth media, as described in Example 1. The next day, the media in wells was removed and replaced with 50 μL of fresh media without serum containing 62.5 μg/mL (100 μM) of calcein, except for HEK293A (250 μg/mL, 400 μM). At the same time, the shuttle agent(s) to be tested was added at a predetermined concentration. The plate was incubated at 37° C. for 30 minutes. The cells were washed with 1×PBS (37° C.) and fresh media containing 5-10% serum was added. The plate was incubated at 37° C. for 2.5 hours. The cells were washed with 1×PBS and detached using trypsinization.
(§3) Untreated calcein-loaded cells were used as a control to distinguish cells having a baseline of fluorescence due to endosomally-trapped calcein from cells having increased fluorescence due to release of calcein from endosomes. Fluorescence signal means (“mean counts”) were analyzed for endosomal escape quantification. In some cases, the “Mean Factor” was calculated, which corresponds to the fold-increase of the mean counts relative to control (untreated calcein-loaded cells). […] The cellular mortality was monitored with the percentage of cells in the total events scanned. When it became lower than the control, it was considered that the number of cellular debris was increasing due to toxicity and the assay was discarded.
To examine the effects of the shuttle agents on primary cells, primary myoblast cells were cultured and tested in the endosomal escape assays as described in Example 2.1. The results of flow cytometry analyses are summarized below in Tables 2.9 and 2.10, and in FIG. 4. In each case, the flow cytometry results were also confirmed by fluorescence microscopy.

HeLa cells [4] = test: GFP transduction efficiency, flow cytometry (% GFP-positive cells); format: cell-based, Human; settings: for Mean (%) (n = 3), FIG. 7B: shuttle 2.5 μM
Method: GFP, GFP-NLS and TAT-GFP are recombinant proteins developed and produced by Feldan (see Example 3.4 below).
Briefly, GFP recombinant protein was co-incubated with different concentrations of CM18-TAT-Cys or dimerized CM18-TAT-Cys (dCM18-TAT-Cys), and then exposed to HeLa cells for 1 hour.
Briefly, GFP recombinant protein (5 μM) was co-incubated with different concentrations and combinations of CM18-TAT-Cys, CM18-Penetratin-Cys, and dimers of each (dCM18-TAT-Cys, dCM18-Penetratin-Cys), and then exposed to HeLa cells for 1 hour. […] The results are shown in Table 3.3 and FIG. 8, as well as in Table 3.4 and FIG. 9.

HeLa cells [5] = format: cell-based, Human
Method: as §1, §2, §3
HeLa cells were cultured and tested in the endosomal escape assays as described in Example 2.1. In each case, the flow cytometry results were also confirmed by fluorescence microscopy (data not shown).

HeLa cells [6] = test: GFP-NLS transduction efficiency, flow cytometry (Pos cells %, relative fluorescence intensity FL1-A); format: cell-based, Human; settings: GFP-NLS 5 μM, 1 hour
[7] = FIG. 11B, TAT-GFP 5 μM, FIG. 11B
[8] = FIG. 13B, GFP-NLS 5 μM, FIG. 13B
[9] = FIG. 21B, GFP-NLS 5 μM, FIG. 21B

KWKLFKKIGAVLKVLTTGYGRKKRRQRRRC [CM18-TAT-Cys]
viability at 5 min, 1 µM [1]: 85 ± 6%
viability at 1 h, 0.5 µM ([2]; FIG. 6B, GFP 5 μM, FIG. 6B): 88.4 ± 6%
viability at 1 h, 1 µM ([2]; FIG. 6B, GFP 5 μM, FIG. 6B): 90 ± 6%
viability at 1 h, 3 µM ([2]; FIG. 6B, GFP 5 μM, FIG. 6B): 91 ± 5%
viability at 1 h, 5 µM ([2]; FIG. 6B, GFP 5 μM, FIG. 6B): 90 ± 7%
viability at 1 h, 0.5 µM [2, 7]: 84.4 ± 5%
viability at 1 h, 1 µM [2, 7]: 89.3 ± 5.26%
viability at 1 h, 3 µM [2, 7]: 93.2 ± 6.28%
viability at 1 h, 5 µM [2, 7]: 95.1 ± 5.28%
viability at 1 h, 0.5 µM [2, 8]: 87.6 ± 4%
viability at 1 h, 1 µM [2, 8]: 93 ± 8%
viability at 1 h, 3 µM [2, 8]: 94 ± 5%
viability at 1 h, 5 µM [2, 8]: 93 ± 4%
viability at 1 h, 3 µM [2, 9]: 89 ± 5.37%
viability at 1 h, 5 µM [2, 9]: 81 ± 6.34%
viability at 1 h, 3.5 µM ([2]; antibody 0.5 μM, shuttle 3.5 μM, read-out: Cell viability (%) (± St. Dev.; n = 3), FIG. 19B): 95 ± 4.06%
Cell viability (%) (±St. Dev.; n = 3), FIG. 21B (HeLa cells [3]): 94 ± 4.28%
concentrations associated with an increase in cell toxicity (primary myoblasts; myoblast cells): above 10 μM

KWKLFKKIGAVLKVLTTGYGRKKRRQRRRC [dCM18-TAT-Cys]
GFP transduction efficiency / intracellular delivery (in words) (HeLa cells [4]; GFP 5 μM, 1 hour, Table 3.3 and FIG. 8): increased
GFP transduction efficiency / intracellular delivery (in words) (HeLa cells [4]; GFP 5 μM, 1 hour, Table 3.4 and FIG. 9): increased
Mean (%) (n = 3), FIG. 8 (HeLa cells [4]; GFP 5 μM, shuttle 0.5 μM, 1 hour): 8.86%
Mean (%) (n = 3), FIG. 9 (HeLa cells [4]; GFP 5 μM, shuttle 1 μM, 1 hour): 18.43%
Mean (%) (n = 3), FIG. 7B (HeLa cells [4]; GFP 1 μM): 9.38%
Mean (%) (n = 3), FIG. 7B (HeLa cells [4]; GFP 5 μM): 22.2%
Mean (%) (n = 3), FIG. 7B (HeLa cells [4]; GFP 10 μM): 34.2%
Mean Factor (HeLa cells [5]; Table 2.6, dimer 2 μM): 1.3
Mean counts (n = 4) (HeLa cells [5]; Table 2.6, dimer 2 μM): 79 380
Mean Factor (HeLa cells [5]; Table 2.7, dimer 2 μM): 3.1
Mean counts (n = 3) (HeLa cells [5]; Table 2.7, dimer 2 μM): 174 274
GFP-NLS transduction efficiency / intracellular delivery (in words) (HeLa cells [6]; Tables 5.2, 5.3, FIGS. 14, 15): increased
Mean (%) (n = 3), FIG. 14 (HeLa cells [6]; shuttle 0.5 μM): 8.29%
Mean (%) (n = 3), FIG. 15 (HeLa cells [6]; shuttle 1 μM): 17.83%
Mean counts (primary myoblasts; primary myoblasts, peptide 2.5 μM, Table 2.11): 64 864
Mean Factor (primary myoblasts; primary myoblasts, peptide 2.5 μM, factor v. no peptide): 2.1
